Source: patent US9456604B2, “Herbicide composition” (Syngenta Crop Protection, LLC, priority 2008, dated 2016)

Experiments:
Assay type in all cases: in vivo
[1] = test system: corn; assay: Greenhouse trial, effect of pH on selectivity: four corn varieties; settings: for % phytotoxicity observed, Corn "Cecilia" 8 DAA / % phytotoxicity observed, Corn "Lorenzo" 8 DAA / % phytotoxicity observed, Corn "Marista" 8 DAA / % phytotoxicity observed, Corn "Blizzard" 28 DAA / % phytotoxicity observed, Corn "Cecilia" 28 DAA / % phytotoxicity observed, Corn "Lorenzo" 28 DAA / % phytotoxicity observed, Corn "Marista" 28 DAA / % phytotoxicity observed, Corn "Blizzard" 8 DAA: early POST, 200 l/ha
Protocol: (§1) A greenhouse trial was conducted to look at the effect of pH on the selectivity of an emulsifiable concentrate composition comprising compound B (compound of formula wherein R^1=methoxy-propyl and R^2═CHF2). Applications were made early POST using four corn varieties and eight weeds (Broad leaf weeds: Amaranthus retroflexus (AMARE), Ipomoea hederacea (IPOHE), Polygonum convolvulus (POLCO) Grasses: Digitaria sanuinalis (DIGSA), Echinochloa crus-galli (ECHCG), Eriochloa villosa (ERBVI), Panicum dichotomiflorum (PANDI), Setaria viridus (SETVI)). The spray volume applied was 200 l/ha. Phytotoxicity evaluations were made 8 days after application (DAA) and/or 28 DAA. Results are provided as % phytotoxicity observed wherein 0=no visible phytotoxicity to 100=complete phytotoxicity.

[2] = test system: Panicum dichotomiflorum (PANDI); assay: Greenhouse trial, effect of pH on selectivity: weed; settings: early POST, 200 l/ha
Protocol: as §1

[3] = test system: Eriochloa villosa (ERBVI); assay: as above; settings: early POST, 200 l/ha
Protocol: as §1

[4] = test system: Amaranthus retroflexus (AMARE); assay: as above; settings: early POST, 200 l/ha
Protocol: as §1

[5] = test system: Digitaria sanuinalis (DIGSA); assay: as above; settings: early POST, 200 l/ha
Protocol: as §1

[6] = test system: Polygonum convolvulus (POLCO); assay: as above; settings: early POST, 200 l/ha
Protocol: as §1

[7] = test system: Echinochloa crus-galli (ECHCG); assay: as above; settings: early POST, 200 l/ha
Protocol: as §1

[8] = test system: Ipomoea hederacea (IPOHE); assay: as above; settings: early POST, 200 l/ha
Protocol: as §1

[9] = test system: Setaria viridus (SETVI); assay: as above; settings: early POST, 200 l/ha
Protocol: as §1

Question: How did the “% phytotoxicity observed, Corn "Cecilia" 8 DAA” value ([1]; 100 g ai/ha, pH 3, 8 DAA) turn out when `COCCCc1nc(C(F)F)ccc1C(=O)C1C(=O)C2CCC(C2)C1=O` (stereo not drawn) [Compound B] was run?
Answer: Its value is 5%.

Question: What about the “% phytotoxicity observed, Corn "Lorenzo" 8 DAA” value ([1]; 100 g ai/ha, pH 3, 8 DAA) of the same compound?
Answer: The value was 20%.

Question: What about the “% phytotoxicity observed, Corn "Marista" 8 DAA” value ([1]; 100 g ai/ha, pH 3, 8 DAA) of the same compound?
Answer: Its value is 5%.

Question: What about the “% phytotoxicity observed, Corn "Blizzard" 28 DAA” value ([1]; 100 g ai/ha, pH 3, 28 DAA) of the same compound?
Answer: Its value is 10%.

Question: And the “% phytotoxicity observed, Corn "Cecilia" 28 DAA” value ([1]; 100 g ai/ha, pH 3, 28 DAA)?
Answer: The value was 10%.

Question: And the “% phytotoxicity observed, Corn "Lorenzo" 28 DAA” value ([1]; 100 g ai/ha, pH 3, 28 DAA)?
Answer: The value was 25%.

Question: What about the “% phytotoxicity observed, Corn "Marista" 28 DAA” value ([1]; 100 g ai/ha, pH 3, 28 DAA) of the same compound?
Answer: Its value is 5%.

Question: And the “% phytotoxicity observed, Corn "Cecilia" 8 DAA” value ([1]; 100 g ai/ha, pH 8, 8 DAA)?
Answer: Its value is 5%.

Question: And the “% phytotoxicity observed, Corn "Lorenzo" 8 DAA” value ([1]; 100 g ai/ha, pH 8, 8 DAA)?
Answer: Its value is 20%.

Question: What about the “% phytotoxicity observed, Corn "Marista" 8 DAA” value ([1]; 100 g ai/ha, pH 8, 8 DAA) of the same compound?
Answer: The value was 5%.

Question: And the “% phytotoxicity observed, Corn "Blizzard" 28 DAA” value ([1]; 100 g ai/ha, pH 8, 28 DAA)?
Answer: The value was 10%.

Question: And the “% phytotoxicity observed, Corn "Cecilia" 28 DAA” value ([1]; 100 g ai/ha, pH 8, 28 DAA)?
Answer: Its value is 10%.

Question: What about the “% phytotoxicity observed, Corn "Lorenzo" 28 DAA” value ([1]; 100 g ai/ha, pH 8, 28 DAA) of the same compound?
Answer: Its value is 20%.

Question: And the “% phytotoxicity observed, Corn "Marista" 28 DAA” value ([1]; 100 g ai/ha, pH 8, 28 DAA)?
Answer: Its value is 5%.

Question: And the “% phytotoxicity observed, Corn "Blizzard" 8 DAA” value ([1]; 200 g ai/ha, pH 3, 8 DAA)?
Answer: Its value is 25%.

Question: And the “% phytotoxicity observed, Corn "Cecilia" 8 DAA” value ([1]; 200 g ai/ha, pH 3, 8 DAA)?
Answer: Its value is 20%.

Question: And the “% phytotoxicity observed, Corn "Lorenzo" 8 DAA” value ([1]; 200 g ai/ha, pH 3, 8 DAA)?
Answer: The value was 30%.

Question: And the “% phytotoxicity observed, Corn "Marista" 8 DAA” value ([1]; 200 g ai/ha, pH 3, 8 DAA)?
Answer: Its value is 30%.

Question: And the “% phytotoxicity observed, Corn "Blizzard" 28 DAA” value ([1]; 200 g ai/ha, pH 3, 28 DAA)?
Answer: Its value is 20%.

Question: And the “% phytotoxicity observed, Corn "Cecilia" 28 DAA” value ([1]; 200 g ai/ha, pH 3, 28 DAA)?
Answer: The value was 20%.

Question: And the “% phytotoxicity observed, Corn "Lorenzo" 28 DAA” value ([1]; 200 g ai/ha, pH 3, 28 DAA)?
Answer: Its value is 30%.

Question: And the “% phytotoxicity observed, Corn "Marista" 28 DAA” value ([1]; 200 g ai/ha, pH 3, 28 DAA)?
Answer: The value was 15%.

Question: What about the “% phytotoxicity observed, Corn "Blizzard" 8 DAA” value ([1]; 200 g ai/ha, pH 8, 8 DAA) of the same compound?
Answer: Its value is 20%.

Question: And the “% phytotoxicity observed, Corn "Cecilia" 8 DAA” value ([1]; 200 g ai/ha, pH 8, 8 DAA)?
Answer: Its value is 20%.

Question: What about the “% phytotoxicity observed, Corn "Lorenzo" 8 DAA” value ([1]; 200 g ai/ha, pH 8, 8 DAA) of the same compound?
Answer: The value was 25%.

Question: What about the “% phytotoxicity observed, Corn "Marista" 8 DAA” value ([1]; 200 g ai/ha, pH 8, 8 DAA) of the same compound?
Answer: Its value is 5%.

Question: What about the “% phytotoxicity observed, Corn "Blizzard" 28 DAA” value ([1]; 200 g ai/ha, pH 8, 28 DAA) of the same compound?
Answer: The value was 10%.

Question: What about the “% phytotoxicity observed, Corn "Cecilia" 28 DAA” value ([1]; 200 g ai/ha, pH 8, 28 DAA) of the same compound?
Answer: Its value is 10%.

Question: And the “% phytotoxicity observed, Corn "Lorenzo" 28 DAA” value ([1]; 200 g ai/ha, pH 8, 28 DAA)?
Answer: The value was 25%.

Question: And the “% phytotoxicity observed, Corn "Marista" 28 DAA” value ([1]; 200 g ai/ha, pH 8, 28 DAA)?
Answer: Its value is 5%.

Question: And the “phytotoxicity observed in corn when applied at pH 8 rather than pH 3” value ([1]; pH 8 versus pH 3, greenhouse trial, Table C)?
Answer: The value was “significantly decreased”.

Question: And the “% phytotoxicity observed, PANDI 8 DAA” value ([2]; 100 g ai/ha, pH 3, 8 DAA)?
Answer: The value was 98%.

Question: What about the “% phytotoxicity observed, PANDI 8 DAA” value ([2]; 100 g ai/ha, pH 8, 8 DAA) of the same compound?
Answer: The value was 98%.

Question: What about the “% phytotoxicity observed, PANDI 8 DAA” value ([2]; 200 g ai/ha, pH 3, 8 DAA) of the same compound?
Answer: Its value is 100%.

Question: And the “% phytotoxicity observed, PANDI 8 DAA” value ([2]; 200 g ai/ha, pH 8, 8 DAA)?
Answer: Its value is 100%.

Question: What about the “% phytotoxicity observed, ERBVI 8 DAA” value ([3]; 100 g ai/ha, pH 3, 8 DAA) of the same compound?
Answer: Its value is 80%.

Question: What about the “% phytotoxicity observed, ERBVI 8 DAA” value ([3]; 100 g ai/ha, pH 8, 8 DAA) of the same compound?
Answer: Its value is 98%.

Question: And the “% phytotoxicity observed, ERBVI 8 DAA” value ([3]; 200 g ai/ha, pH 3, 8 DAA)?
Answer: Its value is 90%.

Question: And the “% phytotoxicity observed, ERBVI 8 DAA” value ([3]; 200 g ai/ha, pH 8, 8 DAA)?
Answer: Its value is 98%.

Question: What about the “% phytotoxicity observed, AMARE 8 DAA” value ([4]; 100 g ai/ha, pH 3, 8 DAA) of the same compound?
Answer: The value was 98%.

Question: What about the “% phytotoxicity observed, AMARE 8 DAA” value ([4]; 100 g ai/ha, pH 8, 8 DAA) of the same compound?
Answer: Its value is 95%.

Question: What about the “% phytotoxicity observed, AMARE 8 DAA” value ([4]; 200 g ai/ha, pH 3, 8 DAA) of the same compound?
Answer: Its value is 100%.

Question: What about the “% phytotoxicity observed, AMARE 8 DAA” value ([4]; 200 g ai/ha, pH 8, 8 DAA) of the same compound?
Answer: Its value is 98%.

Question: What about the “% phytotoxicity observed, DIGSA 8 DAA” value ([5]; 100 g ai/ha, pH 3, 8 DAA) of the same compound?
Answer: Its value is 85%.

Question: What about the “% phytotoxicity observed, DIGSA 8 DAA” value ([5]; 100 g ai/ha, pH 8, 8 DAA) of the same compound?
Answer: Its value is 85%.

Question: And the “% phytotoxicity observed, DIGSA 8 DAA” value ([5]; 200 g ai/ha, pH 3, 8 DAA)?
Answer: Its value is 100%.

Question: And the “% phytotoxicity observed, DIGSA 8 DAA” value ([5]; 200 g ai/ha, pH 8, 8 DAA)?
Answer: The value was 95%.

Question: And the “% phytotoxicity observed, POLCO 8 DAA” value ([6]; 100 g ai/ha, pH 3, 8 DAA)?
Answer: The value was 80%.

Question: What about the “% phytotoxicity observed, POLCO 8 DAA” value ([6]; 100 g ai/ha, pH 8, 8 DAA) of the same compound?
Answer: Its value is 70%.

Question: And the “% phytotoxicity observed, POLCO 8 DAA” value ([6]; 200 g ai/ha, pH 3, 8 DAA)?
Answer: The value was 95%.

Question: What about the “% phytotoxicity observed, POLCO 8 DAA” value ([6]; 200 g ai/ha, pH 8, 8 DAA) of the same compound?
Answer: The value was 90%.

Question: And the “% phytotoxicity observed, ECHCG 8 DAA” value ([7]; 100 g ai/ha, pH 3, 8 DAA)?
Answer: Its value is 80%.

Question: What about the “% phytotoxicity observed, ECHCG 8 DAA” value ([7]; 100 g ai/ha, pH 8, 8 DAA) of the same compound?
Answer: Its value is 95%.

Question: And the “% phytotoxicity observed, ECHCG 8 DAA” value ([7]; 200 g ai/ha, pH 3, 8 DAA)?
Answer: Its value is 98%.

Question: What about the “% phytotoxicity observed, ECHCG 8 DAA” value ([7]; 200 g ai/ha, pH 8, 8 DAA) of the same compound?
Answer: Its value is 95%.

Question: What about the “% phytotoxicity observed, IPOHE 8 DAA” value ([8]; 100 g ai/ha, pH 3, 8 DAA) of the same compound?
Answer: Its value is 80%.

Question: And the “% phytotoxicity observed, IPOHE 8 DAA” value ([8]; 100 g ai/ha, pH 8, 8 DAA)?
Answer: Its value is 85%.

Question: And the “% phytotoxicity observed, IPOHE 8 DAA” value ([8]; 200 g ai/ha, pH 3, 8 DAA)?
Answer: The value was 95%.

Question: What about the “% phytotoxicity observed, IPOHE 8 DAA” value ([8]; 200 g ai/ha, pH 8, 8 DAA) of the same compound?
Answer: Its value is 90%.

Question: And the “% phytotoxicity observed, SETVI 8 DAA” value ([9]; 100 g ai/ha, pH 3, 8 DAA)?
Answer: Its value is 90%.

Question: What about the “% phytotoxicity observed, SETVI 8 DAA” value ([9]; 100 g ai/ha, pH 8, 8 DAA) of the same compound?
Answer: Its value is 90%.

Question: And the “% phytotoxicity observed, SETVI 8 DAA” value ([9]; 200 g ai/ha, pH 3, 8 DAA)?
Answer: Its value is 100%.

Question: What about the “% phytotoxicity observed, SETVI 8 DAA” value ([9]; 200 g ai/ha, pH 8, 8 DAA) of the same compound?
Answer: Its value is 98%.
